Data from patent US4169197A, “6-Deoxyneamines aminoglycoside compounds” (The Upjohn Company, priority 1978, dated 1979).
≈ marks a conversion by molar mass, not a printed value. Read-outs that look alike come from different tables or passages of the source.

How the values were obtained:
Assay type in all cases: cell-based
B. cereus UC 3145 = assay: standard disc plate assay, zones of inhibition; details: Bacillus cereus, 12.5 mm paper discs; for zone of inhibition at 100 µg/mL: UC3145, read-out: Zones of Inhibition, 0.1 mg/ml; for zone of inhibition at 1000 µg/mL: UC3145, read-out: Zones of Inhibition, 1 mg/ml
Excerpt: (§1) The compounds of formulas (V, VII, IX, XI, XIV, XVI, and XIX) are active as antibacterials and can be used in various environments to erradicate or control susceptible microorganisms. Tables I and II set forth the in vitro antibacterial test results for representative compounds of the present invention. The results were obtained with a standard disc plate assay using 12.5 mm paper discs.

B. subtilis UC 564 = assay: standard disc plate assay, zones of inhibition; details: Bacillus subtilis, 12.5 mm paper discs; for zone of inhibition at 100 µg/mL: UC564, read-out: Zones of Inhibition, 0.1 mg/ml; for zone of inhibition at 1000 µg/mL: UC564, read-out: Zones of Inhibition, 1 mg/ml
Excerpt: as §1

E. coli UC 51 = assay: standard disc plate assay, zones of inhibition; details: Escherichia coli, 12.5 mm paper discs; for zone of inhibition at 100 µg/mL: UC51, read-out: Zones of Inhibition, 0.1 mg/ml; for zone of inhibition at 1000 µg/mL: UC51, read-out: Zones of Inhibition, 1 mg/ml
Excerpt: as §1

K. pneumoniae UC 57 = assay: standard disc plate assay, zones of inhibition; details: Klebsiella pneumoniae, 12.5 mm paper discs; for zone of inhibition at 100 µg/mL: UC57, read-out: Zones of Inhibition, 0.1 mg/ml; for zone of inhibition at 1000 µg/mL: UC57, read-out: Zones of Inhibition, 1 mg/ml
Excerpt: as §1

P. vulgaris UC 93 = assay: standard disc plate assay, zones of inhibition; details: Proteus vulgaris, 12.5 mm paper discs; for zone of inhibition at 100 µg/mL: UC93, read-out: Zones of Inhibition, 0.1 mg/ml; for zone of inhibition at 1000 µg/mL: UC93, read-out: Zones of Inhibition, 1 mg/ml
Excerpt: as §1

Ps. aeruginosa UC 95 [1] = assay: standard disc plate assay, zones of inhibition; details: Pseudomonas aeruginosa, UC95, read-out: Zones of Inhibition, 1 mg/ml, 12.5 mm paper discs
Excerpt: as §1

S. aureus UC 80 = assay: standard disc plate assay, zones of inhibition; details: Staphylococcus aureus, 12.5 mm paper discs; for zone of inhibition at 100 µg/mL: UC80, read-out: Zones of Inhibition, 0.1 mg/ml; for zone of inhibition at 1000 µg/mL: UC80, read-out: Zones of Inhibition, 1 mg/ml
Excerpt: as §1

S. gallinarum UC 265 = assay: standard disc plate assay, zones of inhibition; details: for Zones of Inhibition: 12.5 mm paper discs, Table II
Excerpt: as §1

S. lutea UC 130 = assay: standard disc plate assay, zones of inhibition
Excerpt: as §1

S. schottmuelleri UC 126 [2] = assay: standard disc plate assay, zones of inhibition; details: 12.5 mm paper discs; for zone of inhibition at 100 µg/mL: 0.1 mg/ml; for zone of inhibition at 1000 µg/mL: 1 mg/ml
Excerpt: as §1

E. coli UC 311 = assay: standard microplate test in BHI Agar; details: Escherichia coli, UC311, 20 h, read-out: Minimal Inhibitory Concentration
Procedure: (§2) The compounds VII, XI, XVβ, XVα and XVI were tested in a standard microplate test in BHI (Brain Heart Infusion) Agar at a concentration of 1 mg./ml. and dilutions thereof at 37° incubation temperature. The end points are read out 20 hours. BHI Agar is supplied by Difco Laboratories, Detroit, Mich.

E. coli UC 45 = assay: standard microplate test in BHI Agar; details: Escherichia coli, UC45, 37°, 20 hours, Table III, read-out: Minimum Inhibitory Concentration
Procedure: as §2

K. pneumoniae UC 58 = assay: standard microplate test in BHI Agar; details: Klebsiella pneumoniae, UC58, 20 h
Procedure: as §2

P. mirabilis UC 6671 = assay: standard microplate test in BHI Agar; details: Proteus mirabilis, UC6671, 20 h
Procedure: as §2

P. morganii UC 3186 = assay: standard microplate test in BHI Agar; details: Morganella morganii, UC3186, 20 h
Procedure: as §2

P. rettgeri UC 339 = assay: standard microplate test in BHI Agar; details: Providencia rettgeri, UC339, 20 h
Procedure: as §2

Ps. aeruginosa UC 95 [3] = assay: standard microplate test in BHI Agar; details: Pseudomonas aeruginosa, UC95, 20 h
Procedure: as §2

S. aureus UC 76 = assay: standard microplate test in BHI Agar; details: Staphylococcus aureus, UC76, 20 h
Procedure: as §2

S. faecalis UC 694 = assay: standard microplate test in BHI Agar; details: Enterococcus faecalis, UC694, 20 h
Procedure: as §2

S. flexneri UC 143 = assay: standard microplate test in BHI Agar; details: Shigella flexneri, UC143, 37°, 20 hours
Procedure: as §2

S. marcescens UC 131 = assay: standard microplate test in BHI Agar; details: Serratia marcescens, UC131, 20 h
Procedure: as §2

S. schottmuelleri UC 126 [4] = assay: standard microplate test in BHI Agar; details: 37°, 20 hours
Procedure: as §2

S. typhi UC 215 = assay: standard microplate test in BHI Agar; details: Salmonella enterica, BHI Agar, 37°, 20 hours
Procedure: as §2

[5] = Salmonella enterica, read-out: Zones of Inhibition
[6] = read-out: Minimal Inhibitory Concentration
[7] = read-out: Minimum Inhibitory Concentration
[8] = Table III, read-out: Minimum Inhibitory Concentration
[9] = Table IV, read-out: Minimal Inhibitory Concentration

## NC[C@H]1O[C@H](O[C@H]2[C@H](O)[C@@H](O)[C@H](N)C[C@@H]2N)[C@H](N)[C@@H](O)[C@@H]1O [Neamine]
B. cereus UC 3145; Table I
  zone of inhibition at 100 µg/mL: 15 mm
  zone of inhibition at 1000 µg/mL: 24 mm
B. cereus UC 3145; Table II
  zone of inhibition at 100 µg/mL: 15 mm
  zone of inhibition at 1000 µg/mL: 23 mm
B. subtilis UC 564; Table I
  zone of inhibition at 100 µg/mL: 30 mm
  zone of inhibition at 1000 µg/mL: 39 mm
B. subtilis UC 564; Table II
  zone of inhibition at 100 µg/mL: 28 mm
  zone of inhibition at 1000 µg/mL: 37 mm
E. coli UC 51; Table I
  zone of inhibition at 100 µg/mL: 19 mm
  zone of inhibition at 1000 µg/mL: 27 mm
E. coli UC 51; Table II
  zone of inhibition at 100 µg/mL: 18 mm
  zone of inhibition at 1000 µg/mL: 25 mm
K. pneumoniae UC 57; Table I
  zone of inhibition at 100 µg/mL: 27 mm
  zone of inhibition at 1000 µg/mL: 34 mm
K. pneumoniae UC 57; Table II
  zone of inhibition at 100 µg/mL: 26 mm
  zone of inhibition at 1000 µg/mL: 32 mm
P. vulgaris UC 93; Table I
  zone of inhibition at 100 µg/mL: 18 mm
  zone of inhibition at 1000 µg/mL: 27 mm
P. vulgaris UC 93; Table II
  zone of inhibition at 100 µg/mL: 15 mm
  zone of inhibition at 1000 µg/mL: 28 mm
Ps. aeruginosa UC 95 [1]; Table I
  zone of inhibition at 1000 µg/mL: 17 mm
Ps. aeruginosa UC 95 [1]; Table II
  zone of inhibition at 1000 µg/mL: 18 mm
S. aureus UC 80; Table I
  zone of inhibition at 100 µg/mL: 20 mm
  zone of inhibition at 1000 µg/mL: 29 mm
S. aureus UC 80; Table II
  zone of inhibition at 100 µg/mL: 18 mm
  zone of inhibition at 1000 µg/mL: 26 mm
S. gallinarum UC 265; 0.1 mg/ml
  Zones of Inhibition: 19 mm
S. gallinarum UC 265; 1 mg/ml
  Zones of Inhibition: 29 mm
S. gallinarum UC 265; [5]
  zone of inhibition at 100 µg/mL: 19 mm
  zone of inhibition at 1000 µg/mL: 29 mm
S. lutea UC 130; 1 mg/ml, 12.5 mm paper discs, Table II
  Zones of Inhibition: 17 mm
S. lutea UC 130; Micrococcus luteus, UC130, read-out: Zones of Inhibition
  zone of inhibition at 1000 µg/mL: 17 mm
S. schottmuelleri UC 126 [2]; Table I
  zone of inhibition at 100 µg/mL: 16 mm
  zone of inhibition at 1000 µg/mL: 24 mm
S. schottmuelleri UC 126 [2]; Table II
  zone of inhibition at 100 µg/mL: 15 mm
  zone of inhibition at 1000 µg/mL: 23 mm
E. coli UC 311
  MIC: 125 µg/mL (≈ 388 µM)
E. coli UC 45
  MIC: 62.5 µg/mL (≈ 194 µM)
K. pneumoniae UC 58; [6]
  MIC: 7.8 µg/mL (≈ 24.2 µM)
K. pneumoniae UC 58; [7]
  MIC: 15.6 µg/mL (≈ 48.4 µM)
P. mirabilis UC 6671; [6]
  MIC: 250 µg/mL (≈ 776 µM)
P. mirabilis UC 6671; [7]
  MIC: 62.5 µg/mL (≈ 194 µM)
P. morganii UC 3186; [6]
  MIC: 31.2 µg/mL (≈ 96.8 µM)
P. morganii UC 3186; [7]
  MIC: 62.5 µg/mL (≈ 194 µM)
P. rettgeri UC 339; [6]
  MIC: > 500 µg/mL
P. rettgeri UC 339; [7]
  MIC: 250 µg/mL (≈ 776 µM)
Ps. aeruginosa UC 95 [3]; [6]
  MIC: > 500 µg/mL
Ps. aeruginosa UC 95 [3]; [7]
  MIC: > 500 µg/mL
S. aureus UC 76; [6]
  MIC: 7.8 µg/mL (≈ 24.2 µM)
S. aureus UC 76; [7]
  MIC: 3.9 µg/mL (≈ 12.1 µM)
S. faecalis UC 694; [6]
  MIC: > 500 µg/mL
S. faecalis UC 694; [7]
  MIC: > 500 µg/mL
S. flexneri UC 143; [8]
  MIC: 62.5 µg/mL (≈ 194 µM)
S. flexneri UC 143; [9]
  MIC: 125 µg/mL (≈ 388 µM)
S. marcescens UC 131; [6]
  MIC: 250 µg/mL (≈ 776 µM)
S. marcescens UC 131; [7]
  MIC: 250 µg/mL (≈ 776 µM)
S. schottmuelleri UC 126 [4]; [8]
  MIC: 31.2 µg/mL (≈ 96.8 µM)
S. schottmuelleri UC 126 [4]; [9]
  MIC: 15.6 µg/mL (≈ 48.4 µM)
S. typhi UC 215; [8]
  MIC: 15.6 µg/mL (≈ 48.4 µM)
S. typhi UC 215; [9]
  MIC: 31.2 µg/mL (≈ 96.8 µM)
